Tests used:
SCD1 = molecular target: T1, SCD1 (Homo sapiens, UniProt O00767); assay: Cross-linking of SW208108 in 12 NSCLC cell lines; format: cell-based
T1 sequence (O00767 1-359): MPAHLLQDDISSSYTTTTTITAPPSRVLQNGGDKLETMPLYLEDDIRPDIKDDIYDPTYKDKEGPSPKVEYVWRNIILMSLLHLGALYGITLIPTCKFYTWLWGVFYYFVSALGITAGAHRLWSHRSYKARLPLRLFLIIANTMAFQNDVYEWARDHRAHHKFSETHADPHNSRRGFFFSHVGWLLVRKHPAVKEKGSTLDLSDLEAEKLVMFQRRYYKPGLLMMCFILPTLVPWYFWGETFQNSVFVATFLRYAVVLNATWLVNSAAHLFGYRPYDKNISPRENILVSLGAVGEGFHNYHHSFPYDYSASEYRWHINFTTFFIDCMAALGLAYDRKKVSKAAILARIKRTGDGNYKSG
Description: FIGS. 9A-9D. Selective toxins selectively cross-link to SCD1 in sensitive cells and are selectively metabolized in sensitive cells. FIG. 9A. 12 NSCLC cell lines were incubated with SW208108 and processed as described in FIG. 7. […] FIG. 9B. […] FIG. 9C. […] Demethylation is the anticipated mode of metabolism. FIG. 9D. A representative benzothiazole is demethylated by sensitive cell lines. […] Values in FIGS. 9C and 9D were obtained by tandem HPLC/MS/MS.
In this context, 12 different NSCLC cell lines were treated with SW208108, lysed and clicked to a dye as previously described. […] To understand how SW208108 could selectively cross-link to SCD1 within some cell lines that expressed the enzyme but not other cell lines that expressed the same enzyme, we investigated the stability of a representative oxalamide in the presence of a sensitive and insensitive cell line. […] Similarly, a representative benzothiazole was metabolized by H2122 cells through, at least in part, the loss of the O-methyl group (FIG. 9D).

H2122 cells [1] = assay: Covalent labelling of proteins in H2122 cells (click to fluorescent azide, SDS-PAGE); format: cell-based, human
Description: FIG. 7A. […] H2122 cells were treated with the indicated concentrations of SW208108 for 4 h followed by irradiation with a UV light or no irradiation. Cells were then lysed, protein was precipitated, resuspended in buffer and conjugated to an azide-containing dye using Cu catalysis following standard protocols. Samples were resolved under denaturing conditions on an SDS-PAGE gel and visualized using a fluorescent imager at the indicated wavelengths.
FIG. 7B. Chromone and Benzothiazole alkynes, like the oxalamide, covalently bind proteins of similar molecular weight. The arrows indicate a 37 kD and 30 kD band common to all three scaffolds.
To identify the target of the benzothiazoles, oxalamides, N-acyl ureas and chromones, we generated a potent oxalamide, SW208108, that features both a “crosslinker” and a “tag”. Upon exposure to UV light, the benzophenone group becomes reactive and was anticipated to crosslink to a nearby amino acid, and the alkyne serves as a “tag” by its capacity to react with an azide through “click chemistry”. Combining these features, we treated H2122 cells with various concentrations of SW208108 and either cultured them normally (“−UV”) or irradiated them briefly with UV light (“+UV”). Subsequently, we “clicked” the resulting lysate to a fluorescent azide, and detected multiple fluorescently labeled proteins on SDS-PAGE (FIG. 7A). […]

H2122 clones = assay: Toxicity to H2122 clones with loss of HMOX2; format: cell-based, human
Description: FIG. 7O. H2122 cells were engineered to have homozygous or heterozygous loss of HMOX2. hCas9 and guide RNA's targeting HMOX2 were co-expressed in H2122 cells and then cells were individually cloned. Individual clones were raised and analyzed for HMOX2 expression.
FIG. 7P. HMOX2 loss has no impact on the sensitivity of cells to SW208108. A dose response curve assaying the toxicity of SW208108 to H2122 clones identified in FIG. 7O was determined. There is no correlation between HMOX2 expression and SW208108 potency.
However, when HO2 was knocked out from H2122 cells using Crisper technology (FIG. 7O), no toxicity was observed, and SW208108 and related compounds retained toxicity towards H2122 cells (FIG. 7P). We conclude that HO2 is not required for cell survival or for the cytotoxicity of the selective toxins.

H2122 = assay: Cell viability dose-response, H2122; format: cell-based, human; conditions: text b138; read-out: IC50 towards H2122 cells
Method in brief: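 Cells plated at 15% confluence in RPMI-1640 with 5% FBS and 2 mM L-glutamine, treated with compound in a 12-point, 3-fold dilution series from 50 micromolar, in duplicate. ATP measured by Cell Titer Glo after 4 days; IC50 taken from the dose-response curve.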

H2122 cells [2] = assay: Lipid ratios in H2122 cells by MS/MS; format: cell-based, human; conditions: 100 nM, within 6 hours
Description: FIG. 8A. Covalent binders of SCD1 affect lipid ratios in human cancer cells. H2122 cells were treated with 100 nM SW208108 for the indicated times before a lipid extraction was performed. Lipid extracts were analyzed by MS/MS in order to determine the fractional content of 8 different lipid species including triacylglycerols (TAG) and diacylglycerols (DAG). In MS/1, the total number of carbons and number of unsaturated bonds was determined for all of the fatty acid chains. For example, TAG (50:3) is a triacylglycerol with 3 fatty acid chains that all together have 50 carbons and 3 unsaturated bonds. The mass for one of these fatty acids was determined in MS/2 and is listed as noted by its carbon length and unsaturated bond number using the same notation.
SCD1 catalyzes the dehydrogenation of saturated fatty acid-CoA's to form unsaturated fatty acid-CoA's. For example, the enzyme gets its name from the conversion of stearic acid-CoA to oleic acid-CoA. For this reason, inhibition SCD1 was expected to alter the ratio of saturated:unsaturated fatty acids.

## C#CCOc1ccc(C(=O)c2ccc(NC(=O)C(=O)NCCc3ccc(OC)cc3)cc2)cc1 [SW208108]
SCD1
  cross linked SCD1 bands in 12 NSCLC cell lines: Prominent cross linked bands
H2122 cells [1]
  covalent modification of proteins (p37, p30) in H2122 cells without UV: covalently cross links proteins
H2122 clones
  impact of HMOX2 loss on sensitivity of H2122 clones: no impact
H2122
  IC50: 30 nM
H2122 cells [2]
  saturated vs unsaturated fatty acids in neutral lipids: increased the percentage of neutral lipids containing saturated fatty acids
